Results: the supplement of paper PMC10307832

Experiments:
Assay in all cases: relative viability (nuclei count vs DMSO), 5 days (fraction); higher = more cells survive
Ponatinib + Linsitinib = compound: Cc1ccc(C(=O)Nc2ccc(CN3CCN(C)CC3)c(C(F)(F)F)c2)cc1C#Cc1cnc2cccnn12 [Ponatinib] + C[C@]1(O)C[C@@H](c2nc(-c3ccc4ccc(-c5ccccc5)nc4c3)c3c(N)nccn32)C1 [Linsitinib] (partner 1 µM)
Outline: (§1)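 Relative viability was taken as the ratio of nuclei in treated wells to nuclei in vehicle wells. Lung cancer cell lines in 1536-well plates received compounds by pin tool one day after seeding, either one drug alone or a fixed anchor-drug dose plus five library-drug doses (not always all listed) in √10 steps. Nuclei were counted on 4× images after 5 days of treatment, and values are medians of duplicate plates.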

Pazopanib + Olaparib = compound: Cc1ccc(Nc2nccc(N(C)c3ccc4c(C)n(C)nc4c3)n2)cc1S(N)(=O)=O [Pazopanib] + O=C(c1cc(Cc2n[nH]c(=O)c3ccccc23)ccc1F)N1CCN(C(=O)C2CC2)CC1 [Olaparib] (partner 8 µM)
Outline: as §1

Pazopanib + Pemetrexed = compound: Cc1ccc(Nc2nccc(N(C)c3ccc4c(C)n(C)nc4c3)n2)cc1S(N)(=O)=O [Pazopanib] + Nc1nc2[nH]cc(CCc3ccc(C(=O)N[C@@H](CCC(=O)O)C(=O)O)cc3)c2c(=O)[nH]1 [Pemetrexed] (partner 0.2 µM)
Outline: as §1

Pazopanib + Crizotinib = compound: Cc1ccc(Nc2nccc(N(C)c3ccc4c(C)n(C)nc4c3)n2)cc1S(N)(=O)=O [Pazopanib] + C[C@@H](Oc1cc(-c2cnn(C3CCNCC3)c2)cnc1N)c1c(Cl)ccc(F)c1Cl [Crizotinib] (partner 1 µM)
Outline: as §1

Row | Cell Line | relative viability (Ponatinib + Linsitinib; first compound 0.002 µM) | relative viability (Ponatinib + Linsitinib; first compound 0.006325 µM) | relative viability (Ponatinib + Linsitinib; first compound 0.06325 µM) | relative viability (Ponatinib + Linsitinib; first compound 0.2 µM) | relative viability (Pazopanib + Olaparib; first compound 0.01 µM) | relative viability (Pazopanib + Olaparib; first compound 0.03162 µM) | relative viability (Pazopanib + Olaparib; first compound 0.1 µM) | relative viability (Pazopanib + Olaparib; first compound 0.3162 µM) | relative viability (Pazopanib + Olaparib; first compound 1 µM) | relative viability (Pazopanib + Pemetrexed; first compound 0.01 µM) | relative viability (Pazopanib + Pemetrexed; first compound 0.03162 µM) | relative viability (Pazopanib + Pemetrexed; first compound 0.1 µM) | relative viability (Pazopanib + Pemetrexed; first compound 0.3162 µM) | relative viability (Pazopanib + Pemetrexed; first compound 1 µM) | relative viability (Pazopanib + Crizotinib; first compound 0.01 µM) | relative viability (Pazopanib + Crizotinib; first compound 0.03162 µM) | relative viability (Pazopanib + Crizotinib; first compound 0.1 µM) | relative viability (Pazopanib + Crizotinib; first compound 0.3162 µM) | relative viability (Pazopanib + Crizotinib; first compound 1 µM)
1 | EKVX | 0.927 | 1.04 | 1.24 | 1.02 | 0.766 | 1.05 | 0.863 | 0.867 | 0.911 | 0.37 | 0.403 | 0.377 | 0.35 | 0.361 | 0.841 | 1.07 | 0.898 | 0.916 | 0.891
2 | NCI-H1651 | 0.906 | 0.978 | 1.09 | 0.932 | 0.18 | 0.192 | 0.176 | 0.202 | 0.188 | 0.6 | 0.603 | 0.574 | 0.542 | 0.583 | 0.809 | 0.775 | 0.822 | 0.853 | 0.924
3 | A-427 | 1.06 | 1.09 | 1.21 | 0.981 | 0.729 | 0.8 | 0.758 | 0.812 | 0.791 | 0.942 | 1.04 | 0.934 | 1.05 | 1.05 | 1.01 | 0.934 | 0.967 | 0.788 | 0.818
4 | NCI-H2405 | 0.98 | 0.958 | 0.903 | 0.712 | 0.824 | 0.89 | 0.958 | 0.907 | 0.983 | 0.97 | 1.11 | 1.17 | 1.14 | 1.41 | 0.825 | 0.863 | 0.842 | 0.915 | 0.713
5 | NCI-H1355 | 0.833 | 0.916 | 1.08 | 0.947 | 0.716 | 0.708 | 0.76 | 0.761 | 0.754 | 0.84 | 1.02 | 1.1 | 1.02 | 1.08 |  | 0.965 | 1.08 | 0.982 | 1.05
6 | SK-MES-1 | 0.99 | 1.12 | 1.12 | 1.07 | 0.659 | 0.684 | 0.76 | 0.75 | 0.685 | 0.91 | 0.981 | 0.961 | 0.924 | 0.985 | 0.93 | 1 | 1.01 | 1.01 | 0.98
7 | RERF-LC-KJ | 0.842 | 0.907 | 0.914 | 0.827 | 0.805 | 0.938 | 0.947 | 0.785 | 0.583 | 0.498 | 0.517 | 0.443 | 0.432 | 0.541 | 0.794 | 0.773 | 0.812 | 0.775 | 0.789
